Drawing on patent publication US9242970B2 (ACTELION PHARMACEUTICALS LTD., priority 2010, dated 2016), this text covers IC50 for 29 compounds.

Each structure is given as a SMILES string. Like-named read-outs stand apart in the source and are kept apart here.

The target of assay [1] is human orexin-1 receptor (Homo sapiens (Human), UniProt O43613). Briefly: In vitro assay: intracellular calcium measurements (FLIPR), antagonistic activity. The assay is classed as cell-based. Conditions: CHO cells, 3 nM orexin-A, marked values are geometric means of n = 2-6, read-out: IC50 OX1. The method, then:
(§1) In Vitro Assay: Intracellular Calcium Measurements:
(§2) Chinese hamster ovary (CHO) cells expressing the human orexin-1 receptor and the human orexin-2 receptor, respectively, are grown in culture medium (Ham F-12 with L-Glutamine) containing 300 µg/ml G418, 100 U/ml penicillin, 100 µg/ml streptomycin and 10% heat inactivated fetal calf serum (FCS). The cells are seeded at 20,000 cells/well into 384-well black clear bottom sterile plates (Greiner). The seeded plates are incubated overnight at 37° C. in 5% CO2.
(§3) Fluorescence is measured for each well at 1 second intervals, and the height of each fluorescence peak is compared to the height of the fluorescence peak induced by 3 nM orexin-A with vehicle in place of antagonist. […] Optimized conditions were achieved by adjustment of pipetting speed and cell splitting regime. The calculated IC50 values may fluctuate depending on the daily cellular assay performance. Fluctuations of this kind are known to those skilled in the art.
A general note: A change in cytosolic calcium serves as a functional read-out for many receptors and channels.

Assay [2] addresses human orexin-2 receptor (Homo sapiens (Human), UniProt O43614). The assay is described as above. The class given is cell-based. Particulars: read-out: IC50 OX2. The method, then:
as §1, §2, §3

The mark [3] stands for this setting: compound incubation time of 10 min.
Where [4] appears, read: CHO cells, 3 nM orexin-A, compound incubation time of 10 min, marked values are geometric means of n = 2-6.
[5] abbreviates: CHO cells, 3 nM orexin-A, compound incubation 120 min, marked values are geometric means of n = 2-6.

human orexin-1 receptor, sequence (O43613 whole entry): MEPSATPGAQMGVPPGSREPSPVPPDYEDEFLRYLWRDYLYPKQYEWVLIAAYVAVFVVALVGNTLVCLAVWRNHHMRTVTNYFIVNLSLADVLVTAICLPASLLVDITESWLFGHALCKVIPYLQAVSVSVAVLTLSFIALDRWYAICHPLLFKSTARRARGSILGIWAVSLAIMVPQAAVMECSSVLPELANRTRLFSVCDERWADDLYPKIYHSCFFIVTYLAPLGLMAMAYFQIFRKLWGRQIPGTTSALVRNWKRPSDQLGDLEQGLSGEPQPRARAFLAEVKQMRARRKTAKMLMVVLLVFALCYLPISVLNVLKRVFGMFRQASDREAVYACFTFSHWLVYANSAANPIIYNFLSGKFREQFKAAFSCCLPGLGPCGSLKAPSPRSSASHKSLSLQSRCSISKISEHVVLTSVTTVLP
human orexin-2 receptor, sequence (O43614 whole entry): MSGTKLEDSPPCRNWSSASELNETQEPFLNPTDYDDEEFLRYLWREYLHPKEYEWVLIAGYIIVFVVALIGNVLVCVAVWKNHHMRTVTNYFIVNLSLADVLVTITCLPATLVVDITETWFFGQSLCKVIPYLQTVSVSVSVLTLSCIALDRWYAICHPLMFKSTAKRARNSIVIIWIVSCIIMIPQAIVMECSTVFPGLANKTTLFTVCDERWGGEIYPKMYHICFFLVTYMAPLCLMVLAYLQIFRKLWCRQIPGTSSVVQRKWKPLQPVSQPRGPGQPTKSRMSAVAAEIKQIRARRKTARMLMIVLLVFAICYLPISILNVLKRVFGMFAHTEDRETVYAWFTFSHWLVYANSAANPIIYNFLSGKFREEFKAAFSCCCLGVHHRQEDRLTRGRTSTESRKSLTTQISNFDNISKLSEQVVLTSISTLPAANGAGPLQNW

Take `COc1cccc(OC)c1[C@@H]1C[C@H](OC)C(=O)N1Cc1ccc(OC(F)(F)F)cc1` (racemic) [Example 254, rac-(3S*,5S*)-5-(2,6-dimethoxyphenyl)-3-methoxy-1-(4-(trifluoromethoxy)benzyl)pyrrolidin-2-one]: the figures for the 50% inhibitory concentration (IC50) in assay [1] (setting [3]) and in assay [2] (setting [4]) were 191 nM and 168 nM, respectively.
Regarding `COc1cccc(OC)c1[C@@H]1C[C@@H](Cl)C(=O)N1Cc1ccc(OC(F)(F)F)cc1` (racemic) [Example 257, rac-(3R*,5S*)-3-chloro-5-(2,6-dimethoxyphenyl)-1-(4-(trifluoromethoxy)benzyl)pyrrolidin-2-one], the figures for the half-maximal inhibitory concentration (IC50) in assay [1] (setting [3]) and in assay [2] (setting [4]) were 177 nM and 563 nM, respectively.
On to `COc1cccc(OC)c1[C@@H]1C[C@H](Cl)C(=O)N1Cc1ccc(OC(F)(F)F)cc1` (racemic) [Example 261, rac-(3S*,5S*)-3-chloro-5-(2,6-dimethoxyphenyl)-1-(4-(trifluoromethoxy)benzyl)pyrrolidin-2-one], for which the IC50 came out at 65 nM in assay [1] (setting [3]) and 41 nM in assay [2] (setting [4]).
Turning to `COc1cccc(OC)c1[C@@H]1C[C@@H](OC)C(=O)N1Cc1ccc(OC(F)(F)F)cc1` (racemic) [Example 262, rac-(3R*,5S*)-5-(2,6-dimethoxyphenyl)-3-methoxy-1-(4-(trifluoromethoxy)benzyl)pyrrolidin-2-one], the IC50 was found to be 3380 nM in assay [1] (setting [3]) and 6940 nM in assay [2] (setting [4]).
The matching figures for `CC[C@H]1C[C@@H](c2c(OC)cccc2OC)N(Cc2ccc(OC(F)(F)F)cc2)C1=O` (racemic) [Example 263, rac-(3S*,5S*)-5-(2,6-dimethoxyphenyl)-3-ethyl-1-(4-(trifluoromethoxy)benzyl)pyrrolidin-2-one]: 619 nM and 3610 nM.
Take `O=C1[C@H](O)C[C@@H](c2cccc3c2OCCO3)N1Cc1ccc(OC(F)(F)F)cc1` (racemic) [Example 295, rac-(3R*,5S*)-5-(2,3-dihydrobenzo[b][1,4]dioxin-5-yl)-3-hydroxy-1-(4-(trifluoromethoxy)benzyl)pyrrolidin-2-one]: the concentration for half-maximal inhibition (IC50) was found to be 3970 nM in assay [1] (compound incubation 120 min) and 5010 nM in assay [2] (setting [5]).
The like results for `COc1ccccc1[C@@H]1C[C@H](F)C(=O)N1Cc1ccc(OC(F)(F)F)cc1` (racemic) [Example 297, rac-(3S*,5S*)-3-fluoro-5-(2-methoxyphenyl)-1-(4-(trifluoromethoxy)benzyl)pyrrolidin-2-one] were, in that order, 1050 nM and 568 nM.
The like results for `COc1ccccc1[C@@H]1C[C@H](Cl)C(=O)N1Cc1ccc(OC(F)(F)F)cc1` (racemic) [Example 298, rac-(3S*,5S*)-3-chloro-5-(2-methoxyphenyl)-1-(4-(trifluoromethoxy)benzyl)pyrrolidin-2-one] were, in that order, 1630 nM and 901 nM.
The like results for `CCOc1ccccc1[C@@H]1C[C@@H](O)C(=O)N1Cc1ccc(OC(F)(F)F)cc1` (racemic) [Example 299, rac-(3R*,5S*)-5-(2-ethoxyphenyl)-3-hydroxy-1-(4-(trifluoromethoxy)benzyl)pyrrolidin-2-one] were, in that order, 1860 nM and 170 nM.
As for `COc1cccc(F)c1[C@@H]1C[C@H](F)C(=O)N1Cc1ccc(OC(F)(F)F)cc1` (racemic) [Example 301, rac-(3S*,5S*)-3-fluoro-5-(2-fluoro-6-methoxyphenyl)-1-(4-(trifluoromethoxy)benzyl)pyrrolidin-2-one], the values for the IC50 in assay [1] (compound incubation 120 min) and in assay [2] (setting [5]) were 1700 nM and 66 nM, respectively.
On to `COc1cccc(Cl)c1[C@@H]1C[C@H](F)C(=O)N1Cc1ccc(OC(F)(F)F)cc1` (racemic) [Example 302, rac-(3S*,5S*)-5-(2-chloro-6-methoxyphenyl)-3-fluoro-1-(4-(trifluoromethoxy)benzyl)pyrrolidin-2-one], for which the IC50 in assay [1] (compound incubation 120 min) turned out to be 1380 nM; in assay [2] (setting [5]), 103 nM.
As for `COc1cc(F)ccc1[C@@H]1C[C@H](F)C(=O)N1Cc1ccc(OC(F)(F)F)cc1` (racemic) [Example 303, rac-(3S*,5S*)-3-fluoro-5-(4-fluoro-2-methoxyphenyl)-1-(4-(trifluoromethoxy)benzyl)pyrrolidin-2-one], in assay [2] (setting [5]), the half-inhibitory concentration (IC50) came to 143 nM.
Consider `CCOc1ccccc1[C@@H]1C[C@H](Cl)C(=O)N1Cc1ccc(OC(F)(F)F)cc1` (racemic) [Example 304, rac-(3S*,5S*)-3-chloro-5-(2-ethoxyphenyl-1-(4-(trifluoromethoxy)benzyl)pyrrolidin-2-one], for which the values for the IC50 in assay [1] (compound incubation 120 min) and in assay [2] (setting [5]) were 615 nM and 129 nM, respectively.
The matching figures for `COc1cccc(F)c1[C@@H]1C[C@H](Cl)C(=O)N1Cc1ccc(OC(F)(F)F)cc1` (racemic) [Example 305, rac-(3S*,5S*)-3-chloro-5-(2-fluoro-6-methoxyphenyl)-1-(4-(trifluoromethoxy)benzyl)pyrrolidin-2-one]: 396 nM and 96 nM.
The like results for `COc1cccc(Cl)c1[C@@H]1C[C@H](Cl)C(=O)N1Cc1ccc(OC(F)(F)F)cc1` (racemic) [Example 306, rac-(3S*,5S*)-3-chloro-5-(2-chloro-6-methoxyphenyl)-1-(4-(trifluoromethoxy)benzyl)pyrrolidin-2-one] were, in that order, 740 nM and 108 nM.
On to `COc1cccc(C)c1[C@@H]1C[C@@H](O)C(=O)N1Cc1ccc(OC(F)(F)F)cc1` (racemic) [Example 309, rac-(3R*,5S*)-3-hydroxy-5-(2-methoxy-6-methylphenyl)-1-(4-(trifluoromethoxy)benzyl)pyrrolidin-2-one], for which the half-inhibitory concentration (IC50) came to 2220 nM in assay [1] (compound incubation 120 min) and 887 nM in assay [2] (setting [5]).
For `CCOc1c(F)cccc1[C@@H]1C[C@@H](O)C(=O)N1Cc1ccc(OC(F)(F)F)cc1` (racemic) [Example 310, rac-(3R*,5S*)-5-(2-ethoxy-3-fluorophenyl)-3-hydroxy-1-(4-(trifluoromethoxy)benzyl)pyrrolidin-2-one], the IC50 in assay [2] (setting [5]) turned out to be 1680 nM.
Turning to `COc1ccc(F)c(OC)c1[C@@H]1C[C@@H](O)C(=O)N1Cc1ccc(OC(F)(F)F)cc1` (racemic) [Example 311, rac-(3R*,5S*)-5-(3-fluoro-2,6-dimethoxyphenyl)-3-hydroxy-1-(4-(trifluoromethoxy)benzyl)pyrrolidin-2-one], the half-maximal inhibitory concentration (IC50) in assay [2] (setting [5]) is 742 nM.
Regarding `COc1c(F)ccc(F)c1[C@@H]1C[C@H](F)C(=O)N1Cc1ccc(OC(F)(F)F)cc1` (racemic) [Example 321, rac-(3S*,5S*)-5-(3,6-difluoro-2-methoxyphenyl)-3-fluoro-1-(4-(trifluoromethoxy)benzyl)pyrrolidin-2-one], the 50% inhibitory concentration (IC50) in assay [2] (setting [5]) came to 405 nM.
On to `CCOc1ccc(F)c(F)c1[C@@H]1C[C@@H](O)C(=O)N1Cc1ccc(OC(F)(F)F)cc1` (racemic) [Example 338, rac-(3R*,5S*)-5-(6-ethoxy-2,3-difluorophenyl)-3-hydroxy-1-(4-(trifluoromethoxy)benzyl)pyrrolidin-2-one], for which the IC50 in assay [2] (setting [5]) amounted to 58 nM.
Same read-out and setting: under `CC(C)Oc1cccc(F)c1[C@@H]1C[C@@H](O)C(=O)N1Cc1ccc(OC(F)(F)F)cc1` (racemic) [Example 394, rac-(3R*,5S*)-5-(2-fluoro-6-isopropoxyphenyl)-3-hydroxy-1-(4-(trifluoromethoxy)benzyl)pyrrolidin-2-one] stands 77 nM.
For `COc1cccc(F)c1[C@@H]1C[C@@H](Cl)C(=O)N1Cc1ccc2oc3ccccc3c2c1` (racemic) [Example 396, rac-(3R*,5S*)-3-chloro-1-(dibenzo[b,d]furan-2-ylmethyl)-5-(2-fluoro-6-methoxyphenyl)pyrrolidin-2-one], in assay [2] (setting [5]), the concentration for half-maximal inhibition (IC50) was found to be 29 nM.
Turning to `COc1cccc(F)c1[C@@H]1C[C@H](Cl)C(=O)N1Cc1ccc2oc3ccccc3c2c1` (racemic) [Example 408, rac-(3S*,5S*)-3-chloro-1-(dibenzo[b,d]furan-2-ylmethyl)-5-(2-fluoro-6-methoxyphenyl)pyrrolidin-2-one], the IC50 in assay [2] (setting [5]) stood at 5 nM.
For the compound `COc1cccc(F)c1C1CCCC(=O)N1Cc1ccc(OC(F)(F)F)cc1` (centres unmarked) [Example 220, 6-(2-fluoro-6-methoxyphenyl)-1-(4-(trifluoromethoxy)benzyl)piperidin-2-one], the IC50 in assay [2] (setting [4]) was 156 nM.
In the case of `CCOc1cccc(F)c1C1CC(C)C(=O)N1Cc1ccc(OC(F)(F)F)cc1` (centres unmarked) [Example 370, 5-(2-ethoxy-6-fluorophenyl)-3-methyl-1-(4-(trifluoromethoxy)benzyl)pyrrolidin-2-one], the IC50 in assay [2] (setting [5]) amounted to 30 nM.
With `CCOc1cccc(F)c1C1CC(C)C(=O)N1Cc1ccc(OC(F)F)cc1` (centres unmarked) [Example 373, 1-(4-(difluoromethoxy)benzyl)-5-(2-ethoxy-6-fluorophenyl)-3-methylpyrrolidin-2-one], the half-maximal inhibitory concentration (IC50) in assay [2] (setting [5]) was 65 nM.
On the same count and under the same terms, the same measure for `CCOc1cccc(CN2C(=O)C(C)CC2c2c(F)cccc2OCC)c1` (centres unmarked) [Example 376, 5-(2-ethoxy-6-fluorophenyl)-1-(3-ethoxybenzyl)-3-methylpyrrolidin-2-one]: 25 nM.
With `CCCOc1ccc(CN2C(=O)C(C)CC2c2c(F)cccc2OCC)cc1` (centres unmarked) [Example 377, 5-(2-ethoxy-6-fluorophenyl)-3-methyl-1-(4-propoxybenzyl)pyrrolidin-2-one], in assay [2], the IC50 came out at 95 nM.
As for `CCCOc1cccc(F)c1C1CC(C)C(=O)N1Cc1ccc(OC(F)(F)F)cc1` (centres unmarked) [Example 415, 5-(2-fluoro-6-propoxyphenyl)-3-methyl-1-(4-(trifluoromethoxy)benzyl)pyrrolidin-2-one], the IC50 in assay [2] (setting [5]) amounted to 291 nM.

Broadly, the IC50 is the concentration that inhibits the measured activity by half.
